The subject of data set [1] is guinea pig bronchioles constricted by carbachol. The data set is described as follows: Bronchodilator Test Method II, in vitro perfused guinea pig lung. Particulars: for ED50: carbachol (Doryl) 1:5 million. As to the method: In this method bronchodilator activity in vitro was determined by testing the effect of graded doses of the test compounds on guinea pig bronchioles constricted by carbachol, using the technique reported by Sollman and von Oettingen, Proc. Soc, Exp. Biol. Med., 25,692 (1928) as modified by Tainter, Pedden, and James, J. Pharm. Exp. Ther., 51, 371 (1934) and by Luduena, von Euler, Tullar, and Lands, Arch. intern. Pharmacol., III, 392 (1957).

A short description of data set [2]: Solubility and pH of salts.
Data set [3] concerns carbachol- or histamine-induced bronchoconstriction. Put plainly: Bronchodilator Test Method I, anesthetized dog, intravenous activity. The class given is in vivo. The conditions noted are these: Canis lupus familiaris, read-out: Bronchodilatation; for inhibition in vivo at 0.0012 mg/kg: 1.2 mcg/kg i.v.; for inhibition in vivo at 0.003 mg/kg: 3.0 mcg/kg i.v.; for inhibition in vivo at 0.0285 mg/kg: 28.5 mcg/kg i.v.; for inhibition in vivo at 0.114 mg/kg: 114 mcg/kg i.v.; for inhibition in vivo at 0.228 mg/kg: 228 mcg/kg i.v.; for inhibition in vivo at 0.0055 mg/kg: 5.5 mcg/kg i.v. The method in brief: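 Pentobarbital-anesthetized (30 mg/kg i.v.), open-chest, artificially ventilated dogs were given i.v. carbachol (4-6 µg/kg) or histamine diphosphate (35-45 µg/kg). Test compound was given i.v. mixed with, after, or 1-10 min before the constrictor.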

The mark [4] stands for this setting: 1 percent solution in dimethyl sulfoxide.

Read-outs that look alike come from different tables or passages of the source.

The solubility is how much of the substance goes into solution per volume.

For the compound `CC(C)(C)NCC(O)c1ccc(OC(=O)C2CCCCC2)c(OC(=O)C2CCCCC2)c1.Cl` (stereo not drawn) [Example 15, 3,4-bis(cyclohexanecarbonyloxy)-alpha-(tert-butylaminomethyl)benzyl alcohol hydrochloride], in data set [1], the ED50 is 1.3 µg (base). In addition, in data set [1] (dose 3.2 mcg (base)), the “Duration, Mean” value came to 53 ± 7 min. The “precipitation on dilution with three volumes of water” value in data set [2] (setting [4]) was “no precipitate formed”. Besides, the solubility in data set [2] (polyethyleneglycol, organic solvent or mixture) was under 1 mg/mL; in data set [2] (water), under 1 mg/mL. In addition, the inhibition in vivo at 0.0012 mg/kg in data set [3] (2 min, 2 min) was 20%; in data set [3] (0.5 h, 30 min), 27%; in data set [3] (1 h, 60 min), 8%; in data set [3] (2 h, 120 min), 0%. Further, the inhibition in vivo at 0.003 mg/kg in data set [3] (2 min, 2 min) came to 36%; in data set [3] (1 h, 60 min) it was 31%; in data set [3] (2 h, 120 min), 26%; in data set [3] (3 h, 180 min), 20%.
With `CC(C)(C)CC(=O)Oc1ccc(C(O)CNC(C)(C)C)cc1OC(=O)CC(C)(C)C.Cl` (stereo not drawn) [Example 7, 3,4-bis(3,3-dimethylbutanoyloxy)-alpha-(tert-butylaminomethyl)benzyl alcohol hydrochloride], the ED50 in data set [1] is 23 µg (base). Further, the “Duration, Mean” value in data set [1] (dose 32 mcg (base)) is on record as 85 ± 17 min. Further, the solubility in data set [2] (water) is at least 10 mg/mL. In addition, the inhibition in vivo at 0.0285 mg/kg in data set [3] (5 min, 5 min) came to 28%; in data set [3] (0.5 h, 30 min), 32%; in data set [3] (1 h, 60 min), 24%; in data set [3] (2 h, 120 min) it was 24%; in data set [3] (3 h, 180 min), 22%; in data set [3] (4 h, 240 min), 23%. Moreover, the inhibition in vivo at 0.114 mg/kg in data set [3] (5 min, 5 min) was 52%; in data set [3] (0.5 h, 30 min), 42%; in data set [3] (1 h, 60 min) it was 33%; in data set [3] (2 h, 120 min) it was 25%; in data set [3] (3 h, 180 min), 19%. For the same compound, the inhibition in vivo at 0.228 mg/kg in data set [3] (5 min, 5 min) was 98%; in data set [3] (0.5 h, 30 min) it was 77%; in data set [3] (1 h, 60 min), 68%; in data set [3] (2 h, 120 min) it was 56%; in data set [3] (3 h, 180 min), 50%; in data set [3] (4 h, 240 min), 44%.
With `CC(C)CC(=O)Oc1ccc(C(O)CNC(C)(C)C)cc1OC(=O)CC(C)C.Cl` (stereo not drawn) [Example 3, 3,4-bis(isovaleryloxy)-alpha-(tert-butylaminomethyl)-benzyl alcohol hydrochloride], in data set [1], the ED50 is 0.6 µg (base). The “Duration, Mean” value in data set [1] (dose 1.2 mcg (base)) worked out at 18 ± 4 min. Moreover, the “pH of a 1 percent aqueous solution” value in data set [2] (1 percent aqueous solution of the salt) was 5.4. Moreover, the “precipitation on raising pH to 7.0” value in data set [2] (1 percent aqueous solution, N/10 sodium hydroxide to pH 7.0) is recorded as “a precipitate formed”. In addition, in data set [2] (water), the solubility is at least 200 mg/mL. For the same compound, the inhibition in vivo at 0.00055 mg/kg in data set [3] (1 min, 0.55 mcg/kg i.v., 1-2 min) is 32%. Besides, the inhibition in vivo at 0.0011 mg/kg in data set [3] (1 min, 1.1 mcg/kg i.v., 1-2 min) was found to be 54%. Further, the inhibition in vivo at 0.0022 mg/kg in data set [3] (1 min, 2.2 mcg/kg i.v., 1-2 min) worked out at 74%.
In the case of `CCC(C)C(=O)Oc1ccc(C(O)CNC(C)(C)C)cc1OC(=O)C(C)CC.Cl` (stereo not drawn) [Example 4, 3,4-bis(2-methylbutanoyloxy)-alpha-(tert-butylaminomethyl)benzyl alcohol hydrochloride], the ED50 in data set [1] is 0.45 µg (base). In addition, the “Duration, Mean” value in data set [1] (dose 1 mcg (base)) amounted to 20 ± 3 min. The solubility in data set [2] (water) was at least 50 mg/mL. Moreover, the inhibition in vivo at 0.0055 mg/kg in data set [3] (2 min, 2 min) was 48%; in data set [3] (0.5 h, 30 min), 5%; in data set [3] (1 h, 60 min) it was 0%.
For `CC(C)(C)NCC(O)c1ccc(OC(=O)c2ccccc2)c(OC(=O)c2ccccc2)c1.Cl` (stereo not drawn) [Example 29, 3,4-bis(benzoyloxy)-alpha-(tert-butylaminomethyl)benzyl alcohol hydrochloride], the ED50 in data set [1] is 1.1 µg (base). In data set [1] (dose 3.2 mcg (base)), the “Duration, Mean” value is recorded as 34 ± 6.4 min. Besides, the “precipitation on dilution with three volumes of water” value in data set [2] (setting [4]) and in data set [2] (1 percent solution in glycerol formal) was “no precipitate formed” in each case. In addition, the solubility in data set [2] (dimethyl sulfoxide, organic solvent or mixture) is at least 10 mg/mL; in data set [2] (glycerol formal, organic solvent or mixture), at least 10 mg/mL.

Values taken from patent publication USRE30241E, “Esters of 3-(hydroxy or hydroxymethyl)-4-hydroxyphenyl aminomethyl ketones” (Sterling Drug Inc., priority 1970, dated 1980).
